pKi: −log10 of the molar value.
Experiments:
human SGLT1 = target: T1, human SGLT1 (Homo sapiens, UniProt P13866); assay: Inhibition of radiolabeled α-MG uptake into COS-7 cells transfected with human SGLT1 (Dixon plot); format: cell-based
T1 construct: expressed in transfected cells; host or cells: COS-7
T1 sequence (P13866 1-664): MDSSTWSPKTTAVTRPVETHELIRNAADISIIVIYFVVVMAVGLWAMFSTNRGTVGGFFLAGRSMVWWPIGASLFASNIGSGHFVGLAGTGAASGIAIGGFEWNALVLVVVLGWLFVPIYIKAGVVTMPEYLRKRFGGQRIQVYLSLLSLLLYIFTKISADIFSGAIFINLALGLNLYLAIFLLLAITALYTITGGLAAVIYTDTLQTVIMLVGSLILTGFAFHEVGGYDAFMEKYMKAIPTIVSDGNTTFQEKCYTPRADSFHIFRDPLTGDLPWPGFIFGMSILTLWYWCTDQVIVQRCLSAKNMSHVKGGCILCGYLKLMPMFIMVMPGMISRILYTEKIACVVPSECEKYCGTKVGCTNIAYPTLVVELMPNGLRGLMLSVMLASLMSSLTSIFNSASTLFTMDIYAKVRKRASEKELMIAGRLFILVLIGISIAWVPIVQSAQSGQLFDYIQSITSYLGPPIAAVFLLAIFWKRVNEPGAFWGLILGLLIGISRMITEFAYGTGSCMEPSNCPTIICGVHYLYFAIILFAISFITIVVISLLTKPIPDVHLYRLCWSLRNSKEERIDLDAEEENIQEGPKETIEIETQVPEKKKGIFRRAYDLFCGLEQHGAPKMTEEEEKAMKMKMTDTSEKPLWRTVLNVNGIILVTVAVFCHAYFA
Protocol: (§1) Selective inhibition study. Inhibition constants (Ki) of mizagliflozin for rat and human SGLT1 and SGLT2 were determined measuring concentration-dependent effects of test compound on uptake of radiolabeled methyl-α-D-glucopyranoside (α-MG) into COS-7 cells transiently transfected with cloned SGLT1 or SGLT2. Mizagliflozin was assessed at concentrations from 1 to 30 μM and 3 to 100 μM for human and rat SGLT2, respectively. It was assessed at concentrations from 30 nM to 1 μM and 10 to 30 nM for human and rat SGLT1, respectively. α-MG test concentrations were 0.3 and 1 mM. Data were analyzed and Ki determined using Dixon plots of initial transport rates. […] Inhibition constants were also determined for human SGLT1 and SGLT2.

[1] = Oral pharmacokinetics and excretion in rats; format: in vivo, rat
Source text: Accordingly, the SGLT1 inhibitor compounds of Formula I or Formula II are locally acting in the gut, and have poor systemic exposure. […] Systemic exposure (e.g., Cmax) can be measured by methods well known in the art, including liquid chromatography mass spectrometry.

[2] = tested on: Diet-induced obese (DIO) marmoset; assay: Two-week dosing and OGTT in diet-induced obese marmosets; format: in vivo
Protocol: Study on plasma glucose levels in marmosets. Mizagliflozin was evaluated in the Diet-induced obese (DIO) marmoset, a polygenic non-human primate model of obesity. Rimonabant, a canabinoid receptor (CB-1) antagonist that was marketed by Sanofi-Aventis for weight loss in obese patients, was administered at a maximal effective dose of 20 mg/kg twice daily as a positive control. Mizagliflozin was administered orally twice daily to DIO male marmosets (n=8/group) for 2 weeks at BID doses of 3 and 30 mg/kg/day (or only vehicle, aqueous hydroxypropylmethyl-cellulose 0.1%). Effects on body weight and body composition, and serum chemistry parameters were measured and glucose excursions during post-treatment OGTTs were also determined after administration of an oral loading dose of glucose (2.0 g/kg).

[3] = tested on: STZ-induced diabetic rats; assay: Oral mixed-carbohydrate tolerance test (OMCTT) in STZ-induced diabetic rats (Example 9); format: in vivo, rat; details: for Plasma glucose 0 hr: before dosing; for Plasma glucose 0 hr / Plasma glucose 0.5 hr / Plasma glucose 1 hr / Plasma glucose 2 hr / Plasma glucose 3 hr / ΔAUC (0-1) / ΔAUC (0-1) (% of Control): mixed-carbohydrate load, mean ± S.E.M.
Protocol: Study in diabetic rats with mixed carbohydrates. Diabetic rats, induced by intravenous injection of streptozotocin (STZ; 40 mg/kg), were used to determining plasma glucose concentration (PG) 1 hr after oral mixed-carbohydrate tolerance test (OMCTT). […] Blood was collected via the caudal artery immediately before dosing and 0.5, 1, 2, and 3 hr after dosing. The glucose concentration measurement in plasma used Glucose CII-Test Wako kit (Wako Pure Chemicals Industries, Ltd., Osaka, Japan). The variables used for efficacy assessment were the measurement values of the plasma glucose concentration and the area under the curve for plasma glucose concentration through 1 hr after loading (ΔAUC0-1 hr). The ΔAUC0-1 hr for plasma glucose was calculated based on the trapezoid method using the change of plasma glucose concentrations from pre-value (0 hr).

human SGLT2 = target: T2, human SGLT2 (Homo sapiens, UniProt P31639); assay: Inhibition of radiolabeled α-MG uptake into COS-7 cells transfected with human SGLT2 (Dixon plot); format: cell-based; details: α-MG 0.3 and 1 mM, read-out: inhibition constant for human SGLT2
T2 construct: expressed in transfected cells; host or cells: COS-7
T2 sequence (P31639 1-672): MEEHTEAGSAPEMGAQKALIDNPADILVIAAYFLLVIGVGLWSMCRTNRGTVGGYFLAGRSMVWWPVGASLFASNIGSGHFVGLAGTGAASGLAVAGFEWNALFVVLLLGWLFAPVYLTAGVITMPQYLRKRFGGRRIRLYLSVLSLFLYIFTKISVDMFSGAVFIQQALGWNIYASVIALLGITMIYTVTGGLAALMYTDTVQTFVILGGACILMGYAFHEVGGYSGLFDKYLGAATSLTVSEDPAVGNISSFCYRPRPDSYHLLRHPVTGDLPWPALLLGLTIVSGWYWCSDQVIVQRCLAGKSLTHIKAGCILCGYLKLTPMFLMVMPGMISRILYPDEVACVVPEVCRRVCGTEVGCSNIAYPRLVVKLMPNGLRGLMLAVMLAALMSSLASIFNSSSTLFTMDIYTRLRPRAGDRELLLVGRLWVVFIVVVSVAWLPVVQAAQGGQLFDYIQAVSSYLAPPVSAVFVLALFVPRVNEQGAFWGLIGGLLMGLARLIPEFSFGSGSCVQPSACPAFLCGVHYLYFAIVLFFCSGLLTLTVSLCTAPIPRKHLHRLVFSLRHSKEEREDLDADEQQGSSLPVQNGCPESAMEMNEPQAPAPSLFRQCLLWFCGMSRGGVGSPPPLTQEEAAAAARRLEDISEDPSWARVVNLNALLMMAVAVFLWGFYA
Protocol: as §1

SMILES: Cc1cc(OCCCNCC(C)(C)C(N)=O)ccc1Cc1c(O[C@@H]2O[C@H](CO)[C@@H](O)[C@H](O)[C@H]2O)n[nH]c1C(C)C [mizagliflozin, 3-(3-{4-[3-(β-D-glucopyranosyloxy)-5-isopropyl-1H-pyrazol-4-ylmethyl-]-3-methylphenoxy}propylamino)-2,2-dimethylpropionamide]
- mode of inhibition of SGLT1 (Dixon plot intersection pattern) (human SGLT1; human SGLT1): competitive with substrate
- pKi (human SGLT1; α-MG 0.3 and 1 mM, COS-7 cells, read-out: inhibition constant for human SGLT1): 7.57
- bioavailability ([1]; male, rat, plasma, po): 0.01 to 0.08%
- Cmax and AUCt versus dose ([1]; oral 3, 10 and 30 mg/kg, fasted male rats): increased with dose, but not in a clear dose proportional manner
- excreted in the feces ([1]; rats, oral dosing): > 97 % of orally administered dose
- signs of diarrhea ([2]; 2 weeks dosing): No signs of diarrhea were observed
- effects on body weight, body composition (fat or lean mass) and serum chemistry parameters ([2]; 3 and 30 mg/kg, oral twice daily, 2 weeks): no significant effects
- glucose excursions during post-treatment OGTT ([2]; two weeks dosing, glucose 2.0 g/kg): blunting of the glucose excursions
- Plasma glucose 0 hr ([3]; 0.03 mg/kg oral): 120 ± 9 mg/dL
- Plasma glucose 0.5 hr ([3]; 0.03 mg/kg oral): 289 ± 43 mg/dL
- Plasma glucose 1 hr ([3]; 0.03 mg/kg oral): 245 ± 28 mg/dL
- Plasma glucose 2 hr ([3]; 0.03 mg/kg oral): 129 ± 4 mg/dL
- Plasma glucose 3 hr ([3]; 0.03 mg/kg oral): 106 ± 4 mg/dL
- ΔAUC (0-1) ([3]; 0.03 mg/kg oral): 116 ± 25 mg·h/dL
- ΔAUC (0-1) (% of Control) ([3]; 0.03 mg/kg oral): 71 ± 15 % of Control
- Plasma glucose 0 hr ([3]; 0.1 mg/kg oral): 128 ± 13 mg/dL
- Plasma glucose 0.5 hr ([3]; 0.1 mg/kg oral): 261 ± 44 mg/dL
- Plasma glucose 1 hr ([3]; 0.1 mg/kg oral): 234 ± 37 mg/dL
- Plasma glucose 2 hr ([3]; 0.1 mg/kg oral): 136 ± 16 mg/dL
- Plasma glucose 3 hr ([3]; 0.1 mg/kg oral): 98 ± 8 mg/dL
- ΔAUC (0-1) ([3]; 0.1 mg/kg oral): 93 ± 20 mg·h/dL
- ΔAUC (0-1) (% of Control) ([3]; 0.1 mg/kg oral): 57 ± 12 % of Control
- PG elevation after glucose administration ([3]; 0.03 and 0.1 mg/kg oral, OMCTT): inhibited PG elevation after glucose administration dose dependently
- pKi (human SGLT2): 5.09
